Experimental data published in the kinase profiling compilation of Christmann-Franck et al. (2016).

Tests used:
Experiment in all cases: radiometric filter-binding kinase assay
ROCK2 (rat) = details: accession and sequence are those of the human protein
MST4 (human) = MST4 (human) (UniProt Q9P289)
MARK1 (human) = MARK1 (human) (UniProt Q9P0L2)
CSNK2A1 (human) = CSNK2A1 (human) (UniProt P68400)
[1] = test system: AKT1 (human), P31749 [S473D]
EPHB1 (human) = EPHB1 (human) (UniProt P54762)
CaMK1 (human) = CaMK1 (human) (UniProt Q14012)
DYRK1A (human) = DYRK1A (human) (UniProt Q13627)
TAOK1 (human) = TAOK1 (human) (UniProt Q7L7X3)
MAPK14 (human) = MAPK14 (human) (UniProt Q16539)
NUAK1 (human) = NUAK1 (human) (UniProt O60285)
NUAK1 (human), sequence (O60285 whole entry, looked up): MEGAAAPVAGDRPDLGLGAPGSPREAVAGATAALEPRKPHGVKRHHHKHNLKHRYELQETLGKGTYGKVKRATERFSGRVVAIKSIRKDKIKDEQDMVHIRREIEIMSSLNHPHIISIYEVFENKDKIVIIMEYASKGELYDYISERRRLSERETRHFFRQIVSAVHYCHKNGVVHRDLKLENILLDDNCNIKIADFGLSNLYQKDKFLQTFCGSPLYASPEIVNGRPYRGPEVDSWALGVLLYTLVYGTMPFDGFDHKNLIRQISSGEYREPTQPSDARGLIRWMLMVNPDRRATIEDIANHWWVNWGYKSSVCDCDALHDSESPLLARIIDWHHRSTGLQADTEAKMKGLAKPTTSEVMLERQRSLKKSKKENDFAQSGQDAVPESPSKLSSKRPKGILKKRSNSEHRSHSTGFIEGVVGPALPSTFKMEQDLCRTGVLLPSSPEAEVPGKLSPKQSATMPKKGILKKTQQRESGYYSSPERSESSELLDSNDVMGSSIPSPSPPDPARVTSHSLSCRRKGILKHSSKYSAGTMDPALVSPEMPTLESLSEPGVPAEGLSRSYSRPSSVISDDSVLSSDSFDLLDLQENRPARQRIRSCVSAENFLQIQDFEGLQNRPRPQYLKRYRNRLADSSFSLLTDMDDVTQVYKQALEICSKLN

PRKCZ (human) = PRKCZ (human) (UniProt Q05513)
DAPK1 (human) = DAPK1 (human) (UniProt P53355)
MAPK13 (human) = MAPK13 (human) (UniProt O15264)
EEF2K (human) = EEF2K (human) (UniProt O00418)
NEK6 (human) = NEK6 (human) (UniProt Q9HC98)
HIPK3 (human) = HIPK3 (human) (UniProt Q9H422)
PAK6 (human) = PAK6 (human) (UniProt Q9NQU5)
PAK6 (human), sequence (Q9NQU5 whole entry, looked up): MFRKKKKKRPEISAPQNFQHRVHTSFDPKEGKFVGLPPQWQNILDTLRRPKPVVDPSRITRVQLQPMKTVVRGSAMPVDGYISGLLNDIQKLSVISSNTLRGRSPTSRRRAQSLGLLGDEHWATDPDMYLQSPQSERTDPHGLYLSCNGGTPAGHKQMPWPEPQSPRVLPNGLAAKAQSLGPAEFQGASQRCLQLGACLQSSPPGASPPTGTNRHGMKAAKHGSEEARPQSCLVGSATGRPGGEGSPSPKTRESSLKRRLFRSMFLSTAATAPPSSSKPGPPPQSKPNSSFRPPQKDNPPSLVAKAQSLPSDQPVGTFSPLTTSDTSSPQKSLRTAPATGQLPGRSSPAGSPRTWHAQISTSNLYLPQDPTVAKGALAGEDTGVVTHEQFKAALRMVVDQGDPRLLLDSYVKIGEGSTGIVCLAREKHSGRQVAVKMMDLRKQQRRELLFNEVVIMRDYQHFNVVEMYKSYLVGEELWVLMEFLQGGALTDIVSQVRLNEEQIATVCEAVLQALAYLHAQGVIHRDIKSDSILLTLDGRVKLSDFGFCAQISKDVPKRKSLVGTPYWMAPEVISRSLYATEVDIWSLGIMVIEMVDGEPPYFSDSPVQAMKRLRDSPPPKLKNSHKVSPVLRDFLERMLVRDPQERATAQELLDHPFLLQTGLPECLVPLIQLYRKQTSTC

PAK4 (human) = PAK4 (human) (UniProt O96013)
MARK3 (human) = MARK3 (human) (UniProt P27448)
LCK (mouse) = details: accession and sequence are those of the human protein
MAP3K9 (human) = MAP3K9 (human) (UniProt P80192)
HIPK1 (human) = HIPK1 (human) (UniProt Q86Z02)
EPHA2 (human) = EPHA2 (human) (UniProt P29317)
RPS6KA5 KD1 KD2 (human) = RPS6KA5 KD1 KD2 (human) (UniProt O75582)
RPS6KA5 KD1 KD2 (human), sequence (O75582 whole entry, looked up): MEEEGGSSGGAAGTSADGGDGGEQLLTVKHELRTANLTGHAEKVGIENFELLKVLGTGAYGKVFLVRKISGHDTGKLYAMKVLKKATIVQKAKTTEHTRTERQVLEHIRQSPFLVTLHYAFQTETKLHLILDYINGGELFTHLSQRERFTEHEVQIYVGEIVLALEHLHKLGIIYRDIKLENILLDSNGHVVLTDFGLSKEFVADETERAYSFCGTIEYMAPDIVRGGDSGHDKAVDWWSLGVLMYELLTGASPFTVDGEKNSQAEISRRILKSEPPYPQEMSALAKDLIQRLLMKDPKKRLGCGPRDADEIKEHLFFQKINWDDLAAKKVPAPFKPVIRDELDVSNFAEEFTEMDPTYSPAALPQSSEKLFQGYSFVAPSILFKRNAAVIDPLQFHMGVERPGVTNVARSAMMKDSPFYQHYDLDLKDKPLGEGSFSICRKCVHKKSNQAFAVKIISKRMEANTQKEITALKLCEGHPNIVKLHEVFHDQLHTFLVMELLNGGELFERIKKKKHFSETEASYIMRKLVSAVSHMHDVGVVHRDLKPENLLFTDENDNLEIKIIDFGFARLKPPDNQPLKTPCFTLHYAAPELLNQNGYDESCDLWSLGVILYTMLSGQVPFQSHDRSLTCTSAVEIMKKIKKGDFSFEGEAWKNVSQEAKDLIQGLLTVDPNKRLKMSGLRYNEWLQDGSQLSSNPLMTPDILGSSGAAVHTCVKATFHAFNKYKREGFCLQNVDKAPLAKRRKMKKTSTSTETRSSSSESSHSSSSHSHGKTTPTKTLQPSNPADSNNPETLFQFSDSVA

IKBKE (human) = IKBKE (human) (UniProt Q14164)
ERBB4 (human) = ERBB4 (human) (UniProt Q15303)
MAP2K6 (human) = MAP2K6 (human) (UniProt P52564)
MAP2K6 (human), sequence (P52564 whole entry, looked up): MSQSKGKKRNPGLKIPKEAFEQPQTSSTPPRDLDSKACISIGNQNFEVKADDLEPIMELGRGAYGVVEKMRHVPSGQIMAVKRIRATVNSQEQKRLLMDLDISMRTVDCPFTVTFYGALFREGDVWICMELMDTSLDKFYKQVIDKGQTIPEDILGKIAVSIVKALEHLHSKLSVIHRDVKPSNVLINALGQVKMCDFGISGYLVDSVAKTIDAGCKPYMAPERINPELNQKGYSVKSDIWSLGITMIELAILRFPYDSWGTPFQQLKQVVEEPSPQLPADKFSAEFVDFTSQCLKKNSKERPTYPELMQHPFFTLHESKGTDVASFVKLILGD

EPHB3 (human) = EPHB3 (human) (UniProt P54753)
EPHB3 (human), sequence (P54753 whole entry, looked up): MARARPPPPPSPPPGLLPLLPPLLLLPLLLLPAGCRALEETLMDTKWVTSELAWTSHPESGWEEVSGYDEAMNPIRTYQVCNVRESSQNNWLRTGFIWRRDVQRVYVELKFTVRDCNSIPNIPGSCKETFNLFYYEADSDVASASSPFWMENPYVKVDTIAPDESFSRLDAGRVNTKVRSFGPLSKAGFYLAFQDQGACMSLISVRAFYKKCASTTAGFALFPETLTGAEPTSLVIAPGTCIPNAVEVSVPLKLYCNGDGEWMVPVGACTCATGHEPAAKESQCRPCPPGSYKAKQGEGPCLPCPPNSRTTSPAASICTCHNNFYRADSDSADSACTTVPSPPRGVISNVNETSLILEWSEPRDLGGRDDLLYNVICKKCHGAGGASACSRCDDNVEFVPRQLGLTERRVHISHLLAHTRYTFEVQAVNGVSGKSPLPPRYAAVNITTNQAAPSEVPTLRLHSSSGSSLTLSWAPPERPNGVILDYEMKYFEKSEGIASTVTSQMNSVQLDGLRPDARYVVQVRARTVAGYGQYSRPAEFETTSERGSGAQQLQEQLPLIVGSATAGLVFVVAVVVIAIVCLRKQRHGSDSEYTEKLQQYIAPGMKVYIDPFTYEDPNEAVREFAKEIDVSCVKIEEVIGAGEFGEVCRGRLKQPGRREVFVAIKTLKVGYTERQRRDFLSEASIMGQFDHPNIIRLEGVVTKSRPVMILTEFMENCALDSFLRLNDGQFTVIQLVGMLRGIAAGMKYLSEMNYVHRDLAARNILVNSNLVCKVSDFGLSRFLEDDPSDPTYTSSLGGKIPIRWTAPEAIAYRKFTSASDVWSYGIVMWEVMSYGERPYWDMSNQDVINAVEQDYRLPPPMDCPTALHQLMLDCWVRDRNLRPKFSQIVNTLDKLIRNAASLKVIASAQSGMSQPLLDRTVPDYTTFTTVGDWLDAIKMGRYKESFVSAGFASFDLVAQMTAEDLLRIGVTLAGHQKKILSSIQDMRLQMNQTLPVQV

PAK7 (human) = PAK7 (human) (UniProt Q9P286)
BTK (human) = BTK (human) (UniProt Q06187)
MAPK11 (human) = MAPK11 (human) (UniProt Q15759)
MAPK11 (human), sequence (Q15759 whole entry, looked up): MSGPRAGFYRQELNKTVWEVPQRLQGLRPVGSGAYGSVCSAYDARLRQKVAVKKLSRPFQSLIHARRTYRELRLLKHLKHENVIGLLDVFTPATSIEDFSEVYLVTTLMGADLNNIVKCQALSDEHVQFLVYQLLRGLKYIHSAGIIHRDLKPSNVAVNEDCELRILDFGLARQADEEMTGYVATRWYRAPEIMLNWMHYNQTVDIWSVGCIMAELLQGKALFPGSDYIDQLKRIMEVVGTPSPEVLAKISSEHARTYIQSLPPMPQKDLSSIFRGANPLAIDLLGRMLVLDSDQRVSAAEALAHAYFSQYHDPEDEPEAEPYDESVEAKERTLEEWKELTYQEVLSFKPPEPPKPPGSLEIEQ

DYRK2 (human) = DYRK2 (human) (UniProt Q92630)
HIPK2 (human) = HIPK2 (human) (UniProt Q9H2X6)
MAPKAPK5 (human) = MAPKAPK5 (human) (UniProt Q8IW41)
MAPKAPK5 (human), sequence (Q8IW41 whole entry, looked up): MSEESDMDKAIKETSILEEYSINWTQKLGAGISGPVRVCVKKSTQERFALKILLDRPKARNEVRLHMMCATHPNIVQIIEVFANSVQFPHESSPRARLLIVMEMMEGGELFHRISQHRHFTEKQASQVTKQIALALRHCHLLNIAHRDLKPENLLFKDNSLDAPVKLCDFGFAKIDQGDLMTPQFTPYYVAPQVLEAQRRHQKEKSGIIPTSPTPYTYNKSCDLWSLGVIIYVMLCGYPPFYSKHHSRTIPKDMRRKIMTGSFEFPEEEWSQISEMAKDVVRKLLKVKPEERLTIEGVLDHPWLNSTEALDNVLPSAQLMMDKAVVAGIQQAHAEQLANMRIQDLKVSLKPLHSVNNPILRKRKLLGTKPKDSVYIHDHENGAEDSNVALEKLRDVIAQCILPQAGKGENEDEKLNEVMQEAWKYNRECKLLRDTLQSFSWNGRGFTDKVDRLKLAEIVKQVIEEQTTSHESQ

DYRK3 (human) = DYRK3 (human) (UniProt O43781)
DYRK3 (human), sequence (O43781 whole entry, looked up): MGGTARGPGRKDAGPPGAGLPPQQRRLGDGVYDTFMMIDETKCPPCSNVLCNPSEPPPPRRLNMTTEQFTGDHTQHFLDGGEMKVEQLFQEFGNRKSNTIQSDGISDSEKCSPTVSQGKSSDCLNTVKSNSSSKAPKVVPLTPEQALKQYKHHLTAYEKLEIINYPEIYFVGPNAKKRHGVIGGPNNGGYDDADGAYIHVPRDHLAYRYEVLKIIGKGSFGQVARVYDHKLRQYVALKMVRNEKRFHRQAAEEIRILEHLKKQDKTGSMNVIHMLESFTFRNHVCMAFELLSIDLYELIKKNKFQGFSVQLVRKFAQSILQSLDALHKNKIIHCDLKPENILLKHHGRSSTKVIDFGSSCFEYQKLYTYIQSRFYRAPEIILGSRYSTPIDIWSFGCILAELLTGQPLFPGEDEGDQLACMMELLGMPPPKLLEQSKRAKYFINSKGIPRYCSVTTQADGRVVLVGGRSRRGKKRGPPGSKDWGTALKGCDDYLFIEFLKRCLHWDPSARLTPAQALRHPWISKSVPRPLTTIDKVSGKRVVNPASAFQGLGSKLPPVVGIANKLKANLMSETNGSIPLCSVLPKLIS

With `Cc1ccc(=O)n(-c2ccccc2)c1` the residual activity (ROCK2 (rat); compound 1.0 µM) was 94%, the residual activity (ROCK2 (rat); compound 10.0 µM) was 84% and the residual activity (MST4 (human); compound 1.0 µM) was 105%. The residual activity (MST4 (human); compound 10.0 µM) was 102%, the residual activity (MARK1 (human); compound 1.0 µM) was 99% and the residual activity (MARK1 (human); compound 10.0 µM) was 98%. It also gave a residual activity (CSNK2A1 (human); compound 1.0 µM) of 98%, a residual activity (CSNK2A1 (human); compound 10.0 µM) of 103% and a residual activity ([1]; compound 1.0 µM) of 108%. The residual activity ([1]; compound 10.0 µM) was 102%, the residual activity (EPHB1 (human); compound 10.0 µM) was 104% and the residual activity (CaMK1 (human); compound 1.0 µM) was 98%. It also gave a residual activity (CaMK1 (human); compound 10.0 µM) of 81%, a residual activity (DYRK1A (human); compound 1.0 µM) of 103% and a residual activity (DYRK1A (human); compound 10.0 µM) of 91%. The residual activity (TAOK1 (human); compound 1.0 µM) was 118%, the residual activity (TAOK1 (human); compound 10.0 µM) was 100% and the residual activity (MAPK14 (human); compound 1.0 µM) was 102%. For the same compound, the residual activity (MAPK14 (human); compound 10.0 µM) was 83%, the residual activity (NUAK1 (human); compound 1.0 µM) was 115% and the residual activity (NUAK1 (human); compound 10.0 µM) was 100%. The residual activity (PRKCZ (human); compound 1.0 µM) was 109%, the residual activity (PRKCZ (human); compound 10.0 µM) was 97% and the residual activity (DAPK1 (human); compound 1.0 µM) was 112%. It also gave a residual activity (DAPK1 (human); compound 10.0 µM) of 100%, a residual activity (MAPK13 (human); compound 1.0 µM) of 97% and a residual activity (MAPK13 (human); compound 10.0 µM) of 91%. It also gave a residual activity (EEF2K (human); compound 1.0 µM) of 83%, a residual activity (EEF2K (human); compound 10.0 µM) of 87% and a residual activity (NEK6 (human); compound 1.0 µM) of 99%. For the same compound, the residual activity (NEK6 (human); compound 10.0 µM) was 91%, the residual activity (HIPK3 (human); compound 1.0 µM) was 100% and the residual activity (HIPK3 (human); compound 10.0 µM) was 96%. For the same compound, the residual activity (PAK6 (human); compound 1.0 µM) was 106%, the residual activity (PAK6 (human); compound 10.0 µM) was 96% and the residual activity (PAK4 (human); compound 1.0 µM) was 101%. For the same compound, the residual activity (PAK4 (human); compound 10.0 µM) was 89%, the residual activity (MARK3 (human); compound 1.0 µM) was 108% and the residual activity (MARK3 (human); compound 10.0 µM) was 108%. For the same compound, the residual activity (LCK (mouse); compound 1.0 µM) was 96%, the residual activity (LCK (mouse); compound 10.0 µM) was 102% and the residual activity (MAP3K9 (human); compound 1.0 µM) was 95%. For the same compound, the residual activity (MAP3K9 (human); compound 10.0 µM) was 89%, the residual activity (HIPK1 (human); compound 1.0 µM) was 118% and the residual activity (HIPK1 (human); compound 10.0 µM) was 103%. It also gave a residual activity (EPHA2 (human); compound 1.0 µM) of 113%, a residual activity (EPHA2 (human); compound 10.0 µM) of 111% and a residual activity (RPS6KA5 KD1 KD2 (human); compound 1.0 µM) of 98%. For the same compound, the residual activity (RPS6KA5 KD1 KD2 (human); compound 10.0 µM) was 95%, the residual activity (IKBKE (human); compound 1.0 µM) was 104% and the residual activity (IKBKE (human); compound 10.0 µM) was 99%. For the same compound, the residual activity (ERBB4 (human); compound 10.0 µM) was 106%, the residual activity (MAP2K6 (human); compound 1.0 µM) was 106% and the residual activity (MAP2K6 (human); compound 10.0 µM) was 88%. The residual activity (EPHB3 (human); compound 1.0 µM) was 96%, the residual activity (EPHB3 (human); compound 10.0 µM) was 112% and the residual activity (PAK7 (human); compound 1.0 µM) was 88%. The residual activity (PAK7 (human); compound 10.0 µM) was 96%, the residual activity (BTK (human); compound 1.0 µM) was 119% and the residual activity (BTK (human); compound 10.0 µM) was 115%. The residual activity (MAPK11 (human); compound 1.0 µM) was 120%, the residual activity (MAPK11 (human); compound 10.0 µM) was 111% and the residual activity (DYRK2 (human); compound 1.0 µM) was 107%. The residual activity (DYRK2 (human); compound 10.0 µM) was 98%, the residual activity (HIPK2 (human); compound 1.0 µM) was 122% and the residual activity (HIPK2 (human); compound 10.0 µM) was 106%. It also gave a residual activity (MAPKAPK5 (human); compound 1.0 µM) of 100%, a residual activity (MAPKAPK5 (human); compound 10.0 µM) of 95% and a residual activity (DYRK3 (human); compound 1.0 µM) of 103%. For the same compound, the residual activity (DYRK3 (human); compound 10.0 µM) was 93%.
For `CCCC(CCC)C(=O)O`, the residual activity (ROCK2 (rat); compound 1.0 µM) was 84%, the residual activity (ROCK2 (rat); compound 10.0 µM) was 97% and the residual activity (ROCK2 (rat); compound 50.0 µM) was 89%. For the same compound, the residual activity (MST4 (human); compound 10.0 µM) was 102%, the residual activity (MST4 (human); compound 50.0 µM) was 100% and the residual activity (MARK1 (human); compound 10.0 µM) was 97%. The residual activity (MARK1 (human); compound 50.0 µM) was 101%, the residual activity (CSNK2A1 (human); compound 10.0 µM) was 86% and the residual activity (CSNK2A1 (human); compound 50.0 µM) was 86%. For the same compound, the residual activity ([1]; compound 1.0 µM) was 99%, the residual activity ([1]; compound 10.0 µM) was 99% and the residual activity ([1]; compound 50.0 µM) was 102%. It also gave a residual activity (EPHB1 (human); compound 10.0 µM) of 107%, a residual activity (EPHB1 (human); compound 50.0 µM) of 106% and a residual activity (CaMK1 (human); compound 1.0 µM) of 89%. For the same compound, the residual activity (CaMK1 (human); compound 10.0 µM) was 107%, the residual activity (CaMK1 (human); compound 50.0 µM) was 101% and the residual activity (DYRK1A (human); compound 1.0 µM) was 98%. For the same compound, the residual activity (DYRK1A (human); compound 50.0 µM) was 89%, the residual activity (TAOK1 (human); compound 10.0 µM) was 93% and the residual activity (TAOK1 (human); compound 50.0 µM) was 89%. The residual activity (MAPK14 (human); compound 1.0 µM) was 82%, the residual activity (MAPK14 (human); compound 10.0 µM) was 107% and the residual activity (NUAK1 (human); compound 10.0 µM) was 88%. The residual activity (NUAK1 (human); compound 50.0 µM) was 86%, the residual activity (PRKCZ (human); compound 10.0 µM) was 101% and the residual activity (PRKCZ (human); compound 50.0 µM) was 93%. For the same compound, the residual activity (DAPK1 (human); compound 10.0 µM) was 97%, the residual activity (DAPK1 (human); compound 50.0 µM) was 94% and the residual activity (MAPK13 (human); compound 1.0 µM) was 106%. It also gave a residual activity (MAPK13 (human); compound 10.0 µM) of 95%, a residual activity (MAPK13 (human); compound 50.0 µM) of 92% and a residual activity (EEF2K (human); compound 1.0 µM) of 97%. It also gave a residual activity (EEF2K (human); compound 10.0 µM) of 61%, a residual activity (EEF2K (human); compound 50.0 µM) of 71% and a residual activity (NEK6 (human); compound 1.0 µM) of 99%. For the same compound, the residual activity (NEK6 (human); compound 10.0 µM) was 100%, the residual activity (NEK6 (human); compound 50.0 µM) was 102% and the residual activity (HIPK3 (human); compound 10.0 µM) was 89%. For the same compound, the residual activity (HIPK3 (human); compound 50.0 µM) was 97%, the residual activity (PAK6 (human); compound 10.0 µM) was 95% and the residual activity (PAK6 (human); compound 50.0 µM) was 104%. The residual activity (PAK4 (human); compound 10.0 µM) was 86%, the residual activity (PAK4 (human); compound 50.0 µM) was 90% and the residual activity (MARK3 (human); compound 1.0 µM) was 100%. For the same compound, the residual activity (MARK3 (human); compound 10.0 µM) was 108%, the residual activity (LCK (mouse); compound 1.0 µM) was 84% and the residual activity (LCK (mouse); compound 50.0 µM) was 106%. For the same compound, the residual activity (MAP3K9 (human); compound 10.0 µM) was 94%, the residual activity (MAP3K9 (human); compound 50.0 µM) was 102% and the residual activity (HIPK1 (human); compound 10.0 µM) was 84%. It also gave a residual activity (HIPK1 (human); compound 50.0 µM) of 94%, a residual activity (EPHA2 (human); compound 10.0 µM) of 95% and a residual activity (EPHA2 (human); compound 50.0 µM) of 99%. For the same compound, the residual activity (RPS6KA5 KD1 KD2 (human); compound 1.0 µM) was 94%, the residual activity (RPS6KA5 KD1 KD2 (human); compound 10.0 µM) was 86% and the residual activity (RPS6KA5 KD1 KD2 (human); compound 50.0 µM) was 91%. For the same compound, the residual activity (IKBKE (human); compound 10.0 µM) was 101%, the residual activity (IKBKE (human); compound 50.0 µM) was 81% and the residual activity (ERBB4 (human); compound 10.0 µM) was 80%. It also gave a residual activity (ERBB4 (human); compound 50.0 µM) of 76%, a residual activity (MAP2K6 (human); compound 10.0 µM) of 95% and a residual activity (MAP2K6 (human); compound 50.0 µM) of 81%. It also gave a residual activity (EPHB3 (human); compound 50.0 µM) of 96%, a residual activity (PAK7 (human); compound 10.0 µM) of 101% and a residual activity (PAK7 (human); compound 50.0 µM) of 90%. The residual activity (BTK (human); compound 10.0 µM) was 104%, the residual activity (BTK (human); compound 50.0 µM) was 94% and the residual activity (MAPK11 (human); compound 1.0 µM) was 82%. For the same compound, the residual activity (MAPK11 (human); compound 10.0 µM) was 91%, the residual activity (MAPK11 (human); compound 50.0 µM) was 106% and the residual activity (DYRK2 (human); compound 10.0 µM) was 102%. The residual activity (DYRK2 (human); compound 50.0 µM) was 101%, the residual activity (HIPK2 (human); compound 10.0 µM) was 86% and the residual activity (HIPK2 (human); compound 50.0 µM) was 92%. The residual activity (MAPKAPK5 (human); compound 1.0 µM) was 92%, the residual activity (MAPKAPK5 (human); compound 10.0 µM) was 91% and the residual activity (MAPKAPK5 (human); compound 50.0 µM) was 88%. For the same compound, the residual activity (DYRK3 (human); compound 10.0 µM) was 87% and the residual activity (DYRK3 (human); compound 50.0 µM) was 91%.
